11 molecules from PubChem BioAssay (NCI) can be followed below.

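How tested: cells in 96-well plates exposed to compound for 48 hours at five concentrations. At the TGI there is no net growth.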

Among the test systems are M14 melanoma; MDA-MB-231 breast; K-562 leukemia; SNB-19 CNS; A549 NSCLC; LOX IMVI melanoma; UACC-62 melanoma; BT-549 breast; 786-0 renal; HCC-2998 colon; TK-10 renal; MOLT-4 leukemia; U251 CNS.
What all share (experiment): NCI anticancer screen, dose series, 48 h

`CC(Cc1ccc2c(c1)OCO2)N(C)C(=O)C1=CCN(C)CC1` (configuration not stated): the TGI in the test with M14 melanoma, in the test on MDA-MB-231 breast, with K-562 leukemia, in the test with SNB-19 CNS, in the test on A549 NSCLC and with LOX IMVI melanoma was over 100 µM in each case. Moreover, the TGI with UACC-62 melanoma, in the test on BT-549 breast, with 786-0 renal, in the test on HCC-2998 colon, in the test with TK-10 renal and in the test with MOLT-4 leukemia was over 100 µM throughout. In the test with U251 CNS, this molecule displayed a TGI of over 100 µM.
Take `S=C(Nc1cccc(C2(N3CCCCC3)CCCCC2)c1)Nc1cccc(C2(N3CCCCC3)CCCCC2)c1`: the TGI in the test with M14 melanoma is 35.5 µM; in the test with MDA-MB-231 breast it was 32.5 µM; in the test on K-562 leukemia it was 27.5 µM; in the test with SNB-19 CNS, over 100 µM; in the test on A549 NSCLC, over 100 µM; in the test with LOX IMVI melanoma, 26.7 µM. Also, the TGI is 33.3 µM with UACC-62 melanoma; over 100 µM in the test with BT-549 breast; 30.5 µM in the test on 786-0 renal; 6.07 µM in the test with HCC-2998 colon; 7.39 µM in the test with TK-10 renal; 42.8 µM in the test with MOLT-4 leukemia. The molecule further returned a TGI in the test with U251 CNS of 50.4 µM.
Regarding `CC/C=C/C(/C=C/C[C@]1(CC)C[C@H](CC)[C@H](CC(=O)O)OO1)CC` (some centres not stated), the TGI in the test with M14 melanoma is 26.5 µM; with MDA-MB-231 breast it was 14.3 µM; in the test on K-562 leukemia, over 29.8 µM; with SNB-19 CNS, 12 µM; in the test on A549 NSCLC, 3.99 µM; in the test with LOX IMVI melanoma it was 1.76 µM. The TGI with UACC-62 melanoma was 12.1 µM; with BT-549 breast, 18.3 µM; in the test with 786-0 renal, 3.32 µM; with TK-10 renal it was 3.69 µM; in the test with U251 CNS it was 3.36 µM.
On to `O=C1/C(=C/c2ccc(Cl)cc2)Sc2scc(-c3cccc([N+](=O)[O-])c3)[n+]21`, for which the TGI is over 35 µM in the test on M14 melanoma; over 32.1 µM with MDA-MB-231 breast; 2.24 µM in the test with K-562 leukemia; 38.9 µM in the test with SNB-19 CNS; over 68.5 µM in the test with A549 NSCLC; 13.5 µM with UACC-62 melanoma. The TGI in the test with BT-549 breast is 6.37 µM; in the test on 786-0 renal it was 6.49 µM; with HCC-2998 colon, 10.5 µM; in the test on TK-10 renal, 5.07 µM; with MOLT-4 leukemia it was 3.9 µM; with U251 CNS, 23.6 µM.
For the molecule `CSc1nc(-c2ccc(Cl)cc2)c(C#N)c(=O)[nH]1`, the TGI in the test on M14 melanoma, with MDA-MB-231 breast, in the test on K-562 leukemia, in the test on SNB-19 CNS, in the test on A549 NSCLC and with UACC-62 melanoma was over 100 µM each time. The TGI in the test with BT-549 breast, in the test with 786-0 renal, in the test with HCC-2998 colon, with TK-10 renal, in the test on MOLT-4 leukemia and in the test with U251 CNS was over 100 µM in each case.
In the case of `COC(=O)CCC(C)[C@H]1CCC2C3C(C[C@H](OC(C)=O)[C@@]21C)[C@@]1(C)CCC2(C[C@H]1C[C@H]3OC(C)=O)OOC1(CCCCC1)OO2` (some centres not stated), the TGI is over 100 µM in the test with M14 melanoma; over 100 µM in the test with MDA-MB-231 breast; over 100 µM in the test on K-562 leukemia; over 100 µM with SNB-19 CNS; 70.7 µM in the test on A549 NSCLC; over 100 µM in the test on LOX IMVI melanoma. Further, the TGI in the test on BT-549 breast was over 100 µM; in the test with 786-0 renal, 48.6 µM; in the test on HCC-2998 colon, over 100 µM; with TK-10 renal, over 100 µM; with MOLT-4 leukemia, over 100 µM; with U251 CNS, over 100 µM.
Turning to `Cn1nc(C(=O)N2CC(CCl)c3c2cc([N+](=O)[O-])c2ccccc32)cc1NC(=O)Nc1cc(C(=O)N2CC(CCl)c3c2cc([N+](=O)[O-])c2ccccc32)nn1C` (configuration not stated), the TGI with M14 melanoma, with MDA-MB-231 breast, in the test on K-562 leukemia, with SNB-19 CNS, in the test with A549 NSCLC and in the test on UACC-62 melanoma was over 100 µM throughout. The TGI in the test with BT-549 breast, in the test with 786-0 renal, in the test on HCC-2998 colon, with TK-10 renal, in the test with MOLT-4 leukemia and in the test on U251 CNS was over 100 µM throughout.
For the molecule `CC(C)(CN)SCc1ccccc1`, the TGI with M14 melanoma, with MDA-MB-231 breast, with K-562 leukemia, in the test on SNB-19 CNS, with A549 NSCLC and in the test with LOX IMVI melanoma was over 100 µM throughout. In addition, the TGI in the test with UACC-62 melanoma, with BT-549 breast, in the test on 786-0 renal, in the test on TK-10 renal, in the test with MOLT-4 leukemia and in the test with U251 CNS was over 100 µM in each case.
In the case of `CCc1n[nH]c(=S)n1/N=C\c1ccc(-c2ccccc2[N+](=O)[O-])o1`, the TGI in the test with M14 melanoma, in the test with MDA-MB-231 breast, in the test with K-562 leukemia, in the test on SNB-19 CNS, in the test with A549 NSCLC and in the test with LOX IMVI melanoma was over 100 µM in each case. Moreover, the TGI was over 100 µM in the test with UACC-62 melanoma; over 100 µM in the test with BT-549 breast; over 100 µM in the test with 786-0 renal; over 100 µM in the test with TK-10 renal; 57.8 µM in the test with MOLT-4 leukemia; over 100 µM in the test on U251 CNS.
Consider `Cc1cc(C#N)c(Nc2ccccc2[N+](=O)[O-])s1`, for which the TGI in the test on M14 melanoma is over 100 µM; with MDA-MB-231 breast, 92.4 µM; in the test with K-562 leukemia, over 100 µM; with SNB-19 CNS it was over 100 µM; with A549 NSCLC, over 100 µM; in the test with UACC-62 melanoma, over 100 µM. Also, the TGI with BT-549 breast was 60.5 µM; in the test with 786-0 renal, over 100 µM; with HCC-2998 colon it was 91.1 µM; with MOLT-4 leukemia, over 100 µM; in the test with U251 CNS, 57.6 µM.
Consider `Cc1cc(C(O)CNC(C)CCn2cnc3c2c(=O)n(C)c(=O)n3C)ccc1O` (configuration not stated), for which the TGI with M14 melanoma, in the test on MDA-MB-231 breast, in the test on K-562 leukemia, with SNB-19 CNS, in the test on A549 NSCLC and in the test on LOX IMVI melanoma was over 100 µM each time. The TGI in the test with UACC-62 melanoma, in the test with BT-549 breast, in the test on 786-0 renal, with TK-10 renal, in the test with MOLT-4 leukemia and in the test with U251 CNS was over 100 µM throughout.
